# Results taken from patent publication US4885245A, “Process for producing L-tryptophan” (Ajinomoto Co., Inc., priority 1984, dated 1989).
# Assays:
# [1] = biological target: T1, tryptophan synthetase (TS) of transformant AJ 12139 (Corynebacterium glutamicum, UniProt P06561); experiment: TS (TSB) activity of crude enzyme solution of transformant AJ 12139 with added L-tryptophan; type: biochemical, Brevibacterium lactofermentum
# T1 construct: plasmid pAJ 319 (pAJ 1844 vector) carrying trpA and trpB of AJ 12030, in TSA-deficient host No. 21
# Procedure: (§1) A specimen strain was cultured in 20 ml of medium for L-tryptophan production (described hereinafter). From the cultured cells, a lysate was prepared by an ultrasonic wave treatment and centrifuged at 32,000×gfor 30 minutes to obtain the supernatant. The supernatant was used as a crude enzyme solution. Using an enzyme reaction solution (1 ml in total amount) consisting of 100 mM tris hydrochloride buffer (pH 7.8), 0.4 mM indole, 30 mM L-serine, 40 μm pyridoxal-5'-phosphate and 180 mM sodium chloride, TSB activity was measured. The reaction was carried out at 30° C. for 30 minutes, 0.1 ml of 1N NaOH was added, the remaining indole was extracted with toluene, color was then formed by an indole reagent and then the color was measured by a spectrophotometer (at […]).
# [2] = biological target: T2, tryptophan synthetase (TS) of wild strain AJ 12036 (Corynebacterium glutamicum, UniProt P06561); experiment: TS (TSB) activity of crude enzyme solution of wild strain AJ 12036 with added L-tryptophan; type: biochemical; details: strain AJ 12036 crude enzyme, 20 mM L-Tryptophan added
# T2 construct: that of the wild strain (AJ 12036); endogenous in cells; host or cells: wild strain AJ 12036 (FERM-P7559, FERM-BP 734), crude sonicate supernatant
# T2 sequence (P06561 1-417): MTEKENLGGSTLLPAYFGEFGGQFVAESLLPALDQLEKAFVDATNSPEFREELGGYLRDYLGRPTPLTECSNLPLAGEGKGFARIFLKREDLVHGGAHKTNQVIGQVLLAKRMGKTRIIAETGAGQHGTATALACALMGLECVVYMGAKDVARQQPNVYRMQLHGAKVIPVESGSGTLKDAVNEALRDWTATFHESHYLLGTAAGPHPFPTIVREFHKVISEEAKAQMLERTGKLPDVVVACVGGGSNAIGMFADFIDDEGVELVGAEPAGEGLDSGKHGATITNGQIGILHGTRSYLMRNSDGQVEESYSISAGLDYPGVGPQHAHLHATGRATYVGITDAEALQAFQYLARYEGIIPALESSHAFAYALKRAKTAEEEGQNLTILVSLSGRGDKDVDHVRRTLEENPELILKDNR
# T2 sequence (P06562 1-280 partner): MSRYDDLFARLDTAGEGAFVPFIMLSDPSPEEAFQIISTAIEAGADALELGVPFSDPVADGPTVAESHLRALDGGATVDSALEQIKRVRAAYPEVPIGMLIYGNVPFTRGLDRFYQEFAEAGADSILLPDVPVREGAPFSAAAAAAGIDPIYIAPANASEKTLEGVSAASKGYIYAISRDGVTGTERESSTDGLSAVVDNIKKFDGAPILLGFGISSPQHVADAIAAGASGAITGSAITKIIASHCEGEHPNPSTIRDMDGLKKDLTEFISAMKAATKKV
# Procedure: as §1
smiles,measurement,setting,value
"N[C@@H](Cc1c[nH]c2ccccc12)C(=O)O [L-Tryptophan, L-tryptophan]",inhibition of TS activity of the transformant (in words),[1]; in the presence of 20 mM L-tryptophan,inhibited only slightly
same,TS activity (amount of decreased indole in mole/min/mg amount of protein),"[1]; strain AJ 12139 crude enzyme, 20 mM L-Tryptophan added, 30° C., 30 minutes, 0 mM control 81.0",66.4 mole/min/mg amount of protein
same,"TS activity, relative value in parentheses (0 mM = 100)","[1]; strain AJ 12139 crude enzyme, 20 mM L-Tryptophan added, 30 min",82
same,activity at 20000 µM,"[2]; 0.5 h, read-out: TS activity, relative value in parentheses (0 mM = 100)",65%
same,TS activity (amount of decreased indole in mole/min/mg amount of protein),"[2]; 30° C., 30 minutes, 0 mM control 7.1",4.6 mole/min/mg amount of protein
